The subject of one assay is Ornithine Decarboxylase. Briefly: Inhibition of induction of ornithine decarboxylase (ODC) by 12-O-tetradecanoylphorbol-13-acetate in mouse skin. Type of assay: in vivo. The note with it: topical, 1 hour before TPA (17 nmol). As for the experimental part: (§1) The ODC assay measures a compound's effect on the prevention of the induction of ODC. The tracheal organ culture assay measures a compound's ability to reverse keratinization.
The ODC assay is carried out as follows. Female Charles River CD-1 mice from Charles River Breeding Laboratories, Wilmington, Mass., are used (age 7 to 9 weeks). The dorsal hair of the mice is shaved 1 to 2 days before testing, and only mice showing no hair regrowth are used. A single dose of 12-O-tetradecanoylphorbol-13-acetate (TPA) (10.5 μg, 17 nmol) in 0.2 mL of acetone is applied topically to the back of each mouse. The test compound, at one of three dose levels (1.7, 17, and 170 nmol), dissolved in 0.2 mL of acetone is applied 1 hour before the TPA treatment to the test groups; the control group is treated with acetone alone. The mice are killed by cervical dislocation five hours after TPA treatment. Determinations are done in triplicate.
The epidermis is obtained from the sacrificed animals. To obtain sufficient material, the dorsal skins from 2 to 3 mice in each treatment group are pooled. The depilatory agent Nudit® (Helena Rubinstein, New York) is applied to the shaved area of the skin; after 5 minutes, it is washed off thoroughly with cold tap water. Then the skin is excised and plunged immediately into ice-cold water; it is then placed in a 55° C. water bath for 30 seconds and reimmersed in ice-cold water for at least another 30 seconds. The skin is placed epidermis side up on a cold plate, and the epidermis is scraped off with a razor blade. The pooled epidermal sheets are homogenized (Polytron PT-10 homogenizer) at 0° to 4° C. for 15-20 seconds in 50 mM sodium phosphate buffer (pH 7.2) containing 0.1 mM pyridoxal phosphate and 0.1 mM ethylenediaminetetraacetic acid (EDTA), at a volume of 1 mL/skin.
The supernatant fraction remaining after centrifugation of the homogenate at 10,000×g for 30 seconds at 0° C. is used for the enzyme assay. Enzyme activity is determined using the microassay for ODC as described by Verma and Boutwell to measure the release of ^14 CO2 from DL-[1-^14 C]-ornithine (58 mCi/mmol) after incubation with the 10,000×g supernatant. The incubations are carried out by decanting, with a Pasteur pipette, 100 μL of the supernatant containing 100 to 120 μg of protein into two or three 15-mL Corex tubes in a shaking water bath at 37° C. The assay mixture in the tubes consists of 50 μL of 100 mM sodium phosphate buffer (pH 7.2), 10 μL of 4 mM pyridoxal phosphate, 40 μL of 25 mM dithiothreitol, and 1 μL of 0.1M EDTA. The center wells in the tubes are filled with 200 μL of a 2:1 solution (v/v) of ethanolamine:2-methoxyethanol. The reaction is started by adding 50 μL of substrate (0.5 μCi of DL-[1-^14 C]-ornithine in 2 mM cold ornithine) at 1-minute intervals by injection to each of the stoppered tubes. Incubations are routinely carried out at 37° C. for 30 to 60 minutes. The reaction is stopped by addition of 0.5 ml of 2M citric acid, and incubation is continued for an additional hour without heating to ensure complete absorption of ^14 CO2.
Radioactivity is measured using a toluene-based scintillant (4 g of PPO and 50 mg of POPOP/L of toluene) in a Beckman LS-250 liquid scintillation counter. Enzyme activity is determined in triplicate and expressed as nanomoles of CO2 released in 30 minutes per milligram of protein. Enzyme activity is linear for the protein concentration used. The protein concentrations of the epidermal extracts are determined by the Lowry procedure, using bovine serum albumin as the standard.

Assay [1] concerns Hamster Tracheal Organ Culture (keratinization). Briefly: Reversal of keratinization in hamster tracheal organ culture. The class given is cell-based. As for the experimental part:
as §1
The tracheal organ culture assay is carried out as follows. Tracheas are taken from hamsters that are in very early stages of vitamin A deficiency and placed in organ culture. At the time of culture, the animals are still gaining weight; the tracheal epithelium is generally low columnar or cuboidal, with only occasional patches of squamous metaplasia. Each trachea is opened from the larynx to the carina along the membranous dorsal wall and cultured in a serum-free medium (CMRL-1066; with crystalline bovine insulin, 0.1 μg/ml; hydrocortisone hemisuccinate, 0.1 μg/ml; glutamine, 2 mM; penicillin, 100 units/ml; and streptomycin,100 μg/ml, added). Cultures are gassed with 50% oxygen, 45% nitrogen, and 5% CO2. The culture dishes are rocked at 35.5-36.0 degrees to allow the tracheas contact with both gas and medium. All tracheas are grown in medium containing no retinoid for the first 3 days. At the end of 3 days, some tracheas are harvested; almost all of these tracheas have significant squamous metaplasia, and approximately 60% have keratinized lesions. The remaining tracheas are then divided into different groups which are treated with either: (1) retinoid dissolved in dimethylsulfoxide (final concentration of DMSO in culture medium is never greater than 0.1%) or (2) an equivalent amount of DMSO alone. Culture medium is changed three times a week, and all of the remaining tracheas are harvested at the end of 10 days in culture. Tracheas are fixed in 10% buffered formalin and embedded in paraffin. Cross sections of five micrometers are made through the mid-portion, stained with hematoxylin and eosin, and then scored with a microscope for the presence of keratin and keratohyaline granules, both of which are found in approximately 90% of control cultures that receive no retinoid for the entire 10 day culture period.

`CC1=C(/C=C/C(C)=C/C=C/C(C)=C/C(=O)OC[C@]2(CO)CO[C@@H](c3ccccc3)OC2)C(C)(C)CCC1` [Example 1 (Isomer (2)), (E)-2α-Phenyl-5α-hydroxymethyl-5β-retinoyloxymethyl-1,3-dioxane]: the “Inhibition of Induction of Ornithine Decarboxylase by TPA, % Inhibition of Control” value (shortened to “Inhibition … % Inhibition of Control”) in the assay with Ornithine Decarboxylase (Dose 1.7 nmol) stood at 40%; with Ornithine Decarboxylase (Dose 17 nmol) it was 49%. The “Reversal of Keratinization, Active/Total Cultures” value in assay [1] (Conc 10^-8 M) is on record as 13/13; in assay [1] (Conc 10^-9 M), 17/18; in assay [1] (Conc 10^-10 M), 9/18; in assay [1] (Conc 10^-11 M), 2/6. The “Reversal of Keratinization, Active/Total Cultures (%)” value (from here on “Reversal … Active/Total Cultures (%)”) in assay [1] (Conc 10^-8 M) is listed as 100%; in assay [1] (Conc 10^-9 M), 94%; in assay [1] (Conc 10^-10 M), 50%; in assay [1] (Conc 10^-11 M) it was 33%.

`CC1=C(/C=C/C(C)=C/C=C/C(C)=C/C(=O)OC[C@]2(CO)CO[C@H](c3ccccc3)OC2)C(C)(C)CCC1` [Example 1 (Isomer (3)), (E)-2α-Phenyl-5β-hydroxymethyl-5α-retinoyloxymethyl-1,3-dioxane]: the entries for the “Inhibition … % Inhibition of Control” value in the assay with Ornithine Decarboxylase (Dose 1.7 nmol) and in the assay on Ornithine Decarboxylase (Dose 17 nmol) were 47% and 57%, respectively. Further, the “Reversal of Keratinization, Active/Total Cultures” value in assay [1] (Conc 10^-8 M) is reported as 13/13; in assay [1] (Conc 10^-9 M), 18/18; in assay [1] (Conc 10^-10 M), 7/19; in assay [1] (Conc 10^-11 M), 2/6. Also, the “Reversal … Active/Total Cultures (%)” value in assay [1] (Conc 10^-8 M) was found to be 100%; in assay [1] (Conc 10^-9 M), 100%; in assay [1] (Conc 10^-10 M) it was 37%; in assay [1] (Conc 10^-11 M), 33%.

On to `CC1=C(/C=C/C(C)=C/C=C/C(C)=C/C(=O)OCC(CO)(CO)CO)C(C)(C)CCC1` [Example 2, Pentaerythritol Monoretinoate], for which the “Inhibition … % Inhibition of Control” value in the assay with Ornithine Decarboxylase (Dose 1.7 nmol) turned out to be 35%; in the assay on Ornithine Decarboxylase (Dose 17 nmol) it was 43%. The “Reversal of Keratinization, Active/Total Cultures” value is 13/13 in assay [1] (Conc 10^-8 M), 15/15 in assay [1] (Conc 10^-9 M), 18/25 in assay [1] (Conc 10^-10 M) and 5/11 in assay [1] (Conc 10^-11 M). The “Reversal … Active/Total Cultures (%)” value was determined as 100% in assay [1] (Conc 10^-8 M), 100% in assay [1] (Conc 10^-9 M), 72% in assay [1] (Conc 10^-10 M) and 45% in assay [1] (Conc 10^-11 M).

The values above are taken from patent US4464389A, “Esters of retinoic acid and pentaerythritol and monobenzal acetals thereof” (SRI International, priority 1982, dated 1984).
